PMC7450057, “Enhancing intracellular accumulation and target engagement of PROTACs with reversible covalent chemistry” (Nature Communications, 2020)
Values joined by “and” are separate entries in the source; they are usually repeats but may differ in a detail not shown here. Equal values may be shown once. Blank lines part the entries; values can stand above or below the molecule they belong to.

Legend:
[1] = test system: Rec-1; experiment: IC50 in MCL cell lines (Supplementary Table 2), Rec-1; conditions: for IC50: Rec-1, triplicates; for Cell Viability (%): Rec-1 cells, replicate wells
[2] = target: T1, full-length BTK protein (Homo sapiens, UniProt Q06187); experiment: BTK binding assay (Kd, Eurofins DiscoverX)
T1 construct: Kd was measured using the full-length BTK protein by Eurofins DiscoverX; T7 phage fusion or DNA tag for qPCR (generic vendor protocol); purchased Eurofins DiscoverX
T1 sequence (Q06187 whole entry, the tested form may be a part): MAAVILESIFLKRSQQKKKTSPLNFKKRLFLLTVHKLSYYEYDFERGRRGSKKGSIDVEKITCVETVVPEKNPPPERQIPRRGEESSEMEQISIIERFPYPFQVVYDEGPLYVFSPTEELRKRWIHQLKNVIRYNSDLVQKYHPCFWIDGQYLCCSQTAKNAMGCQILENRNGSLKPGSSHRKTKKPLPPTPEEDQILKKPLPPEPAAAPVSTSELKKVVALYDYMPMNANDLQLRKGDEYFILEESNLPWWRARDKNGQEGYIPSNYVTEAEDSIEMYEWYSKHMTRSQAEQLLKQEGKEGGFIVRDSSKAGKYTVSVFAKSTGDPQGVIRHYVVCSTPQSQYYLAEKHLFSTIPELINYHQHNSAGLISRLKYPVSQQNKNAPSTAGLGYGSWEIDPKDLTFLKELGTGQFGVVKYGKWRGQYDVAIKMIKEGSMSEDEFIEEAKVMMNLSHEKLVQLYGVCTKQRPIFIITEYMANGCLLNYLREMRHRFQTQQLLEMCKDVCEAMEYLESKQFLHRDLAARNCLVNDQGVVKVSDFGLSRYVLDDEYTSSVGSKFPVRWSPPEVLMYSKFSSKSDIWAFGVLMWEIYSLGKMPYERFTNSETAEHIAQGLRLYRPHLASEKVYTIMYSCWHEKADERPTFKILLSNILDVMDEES
Description: The dissociation equilibrium constant Kd was measured using the full-length BTK protein by Eurofins DiscoverX according to the following protocol: kinase-tagged T7 phage strains were prepared in an E. coli host derived from the BL21 strain. E. coli were grown to log-phase and infected with T7 phage and incubated with shaking at 32 °C until lysis. The lysates were centrifuged and filtered to remove cell debris. The remaining kinases were produced in HEK-293 cells and subsequently tagged with DNA for qPCR detection. […] The liganded beads were blocked with excess biotin and washed with blocking buffer (SeaBlock (Pierce), 1% BSA, 0.05% Tween 20, 1 mM DTT) to remove unbound ligand and to reduce non-specific binding. […] Test compounds were prepared as 111X stocks in 100% DMSO. […] The compounds were then diluted directly into the assays such that the final concentration of DMSO was 0.9%. All reactions performed in polypropylene 384-well plate. Each was a final volume of 0.02 mL. […] The kinase concentration in the eluates was measured by qPCR. For kinase-binding constant determination, an 11-point 3-fold serial dilution of each test compound was prepared in 100% DMSO at 100x final test concentration and subsequently diluted to 1x in the assay (final DMSO concentration = 1%). […] Binding constants (Kd values) were calculated with a standard dose-response curve using the Hill equation: Response=Background+Signal−Background/1+KdHillSlope/Dose^HillSlope
The Hill Slope was set to −1. Curves were fitted using a non-linear least square fit with the Levenberg-Marquardt algorithm.

[3] = target: BTK (Homo sapiens, UniProt Q06187); experiment: In vitro BTK kinase assay (PhosphoSens); format: biochemical; design: purchased SignalChem B10-10H-10; conditions: for IC50: AssayQuant BTK assay kit, 2.5 nM BTK, 1 mM ATP, duplicates, read-out: BTK inhibition IC50; for activity at 2.56 pM / activity at 12.8 pM / activity at 64 pM / activity at 0.00032 µM / activity at 0.0016 µM / activity at 0.008 µM / activity at 0.04 µM / activity at 0.2 µM / activity at 1 µM: Supplementary Figure 5, replicates, read-out: Inhibition(%); for activity at 2.56 pM: drug concentration 2.56 pM; for activity at 12.8 pM: drug concentration 12.8 pM; for activity at 64 pM: drug concentration 64 pM; for activity at 0.00032 µM: drug concentration 320 pM; for activity at 0.0016 µM: drug concentration 1600 pM; for activity at 0.008 µM: drug concentration 8000 pM; for activity at 0.04 µM: drug concentration 40000 pM; for activity at 0.2 µM: drug concentration 200000 pM; for activity at 1 µM: drug concentration 1000000 pM
Chain of BTK (Q06187 whole entry): as the sequence (Q06187 whole entry, the tested form may be a part) above
Description: BTK kinase activity inhibition IC50 was measured by PhosphoSens® Kinase Assay Kit (Assay Quant Technologies Inc., Cat.# CSKS-AQT0101K). […] Active recombinant BTK was purchased from SignalChem (Cat.# B10-10H-10). All the drugs (3 warhead control and 4 PROTACs) were dissolved in DMSO (10 mM). […] To calculate the IC50, subtract the background fluorescence determined with the “no kinase” control for each time point from the total signal to obtain corrected Relative Fluorescence Units (RFU) values. Plot the corrected RFU vs. Time for each inhibitor concentration and determine the initial reaction rates (slope of the linear portion) for each progress curve for each inhibitor concentration. Then plot velocity (RFU corrected/minute) vs [inhibitor] and determine the IC50 using a 4-parameter logistic fit.

[4] = test system: Mino; experiment: IC50 in MCL cell lines (Supplementary Table 2), Mino; conditions: for Cell Viability (%): Mino cells, replicate wells; for IC50: Mino, triplicates

IC50 [1]: > 5000 nM
Signal ([2]; BTK_+DTT, compound concentration 0.00491 nM): 2.09E-05 and 2.12E-05
Signal ([2]; BTK_+DTT, compound concentration 0.0147 nM): 2.23E-05 and 2.05E-05
Signal ([2]; BTK_+DTT, compound concentration 0.0442 nM): 2.23E-05 and 2.20E-05
Signal ([2]; BTK_+DTT, compound concentration 0.133 nM): 2.05E-05
Signal ([2]; BTK_+DTT, compound concentration 0.398 nM): 2.13E-05 and 2.22E-05
Signal ([2]; BTK_+DTT, compound concentration 1.19 nM): 1.80E-05 and 1.97E-05
Signal ([2]; BTK_+DTT, compound concentration 3.58 nM): 1.78E-05 and 1.71E-05
Signal ([2]; BTK_+DTT, compound concentration 10.7 nM): 1.50E-05 and 1.39E-05
Signal ([2]; BTK_+DTT, compound concentration 32.2 nM): 7.62E-06 and 7.96E-06
Signal ([2]; BTK_+DTT, compound concentration 96.7 nM): 2.20E-06 and 2.08E-06
Signal ([2]; BTK_+DTT, compound concentration 290 nM): 4.82E-07 and 5.26E-07
Signal ([2]; BTK_-DTT, compound concentration 0.0152 nM): 1.69E-05 and 1.12E-05
Signal ([2]; BTK_-DTT, compound concentration 0.0457 nM): 1.66E-05 and 1.75E-05
Signal ([2]; BTK_-DTT, compound concentration 0.137 nM): 1.87E-05 and 1.52E-05
Signal ([2]; BTK_-DTT, compound concentration 0.412 nM): 1.34E-05 and 1.41E-05
Signal ([2]; BTK_-DTT, compound concentration 1.23 nM): 1.48E-05 and 1.35E-05
Signal ([2]; BTK_-DTT, compound concentration 3.7 nM): 1.31E-05 and 1.42E-05
Signal ([2]; BTK_-DTT, compound concentration 11.1 nM): 6.46E-06 and 6.66E-06
Signal ([2]; BTK_-DTT, compound concentration 33.3 nM): 2.78E-06 and 2.85E-06
Signal ([2]; BTK_-DTT, compound concentration 100 nM): 8.37E-07 and 7.44E-07
Signal ([2]; BTK_-DTT, compound concentration 300 nM): 2.56E-07 and 2.49E-07
Kd ([2]; full-length BTK, absence of DTT in the buffer, duplicates): 9.1 nM
IC50 [3]: 2.2 nM
activity at 2.56 pM [3]: 108%
activity at 12.8 pM [3]: 105%
activity at 64 pM [3]: 109%
activity at 0.00032 µM [3]: 96.8%
activity at 0.0016 µM [3]: 64.1%
activity at 0.008 µM [3]: 25.5%
activity at 0.04 µM [3]: 4.68%
activity at 0.2 µM [3]: 1.89%
activity at 1 µM [3]: 2.91%
reduction of BTK inhibition activity compared with IRC-Ctrl ([3]; ratio of IC50 values): 7 folds
IC50 [4]: > 5000 nM
SMILES: CC(C)(C)C=C(C#N)C(=O)N1CCCC(n2nc(-c3ccc(Oc4ccccc4)cc3)c3c(N)ncnc32)C1 (stereo not drawn) [RC-Ctrl]
Cell Viability (%) ([1]; 1.25E-06 M): 84.1542% and 83.3085% and 82.8961%
Cell Viability (%) ([1]; 1.56E-07 M): 92.1928% and 91.3082% and 92.4737%
Cell Viability (%) ([1]; 2.50E-06 M): 79.0591% and 78.7184% and 77.0987%
Cell Viability (%) ([1]; 3.13E-07 M): 90.2055% and 91.6728% and 91.1737%
Cell Viability (%) ([1]; 5.00E-06 M): 67.2403% and 66.8996% and 66.3946%
Cell Viability (%) ([1]; 6.25E-07 M): 86.0757% and 86.1055% and 87.7342%
Cell Viability (%) ([1]; 7.81E-08 M): 88.6576% and 86.9542% and 93.923%
Cell Viability (%) ([4]; 1.25E-06 M): 64.9212% and 67.7956% and 65.2142%
Cell Viability (%) ([4]; 1.56E-07 M): 72.1676% and 75.0045% and 70.0395%
Cell Viability (%) ([4]; 2.50E-06 M): 62.0161% and 61.5033% and 61.0381%
Cell Viability (%) ([4]; 3.13E-07 M): 62.4012% and 64.8258% and 70.1741%
Cell Viability (%) ([4]; 5.00E-06 M): 55.6234% and 57.3306% and 56.4139%
Cell Viability (%) ([4]; 6.25E-07 M): 64.669% and 69.1433% and 66.0679%
Cell Viability (%) ([4]; 7.81E-08 M): 69.6595% and 74.2003% and 68.2948%

IC50 [1]: > 5000 nM
IC50 [3]: 6.8 nM
activity at 2.56 pM [3]: 108%
activity at 12.8 pM [3]: 101%
activity at 64 pM [3]: 109%
activity at 0.00032 µM [3]: 106%
activity at 0.0016 µM [3]: 88.3%
activity at 0.008 µM [3]: 48.8%
activity at 0.04 µM [3]: 10.5%
activity at 0.2 µM [3]: 3.98%
activity at 1 µM [3]: 1.27%
IC50 [4]: 3300 nM
SMILES: CN1C(=O)CCC(N2C(=O)c3cccc(NCC(=O)NCCCN(C)C(C)(C)C=C(C#N)C(=O)N4CCCC(n5nc(-c6ccc(Oc7ccccc7)cc6)c6c(N)ncnc65)C4)c3C2=O)C1=O (stereo not drawn) [RC-1-Me]
Cell Viability (%) ([1]; 1.25E-06 M): 88.9713% and 84.187% and 87.0708%
Cell Viability (%) ([1]; 1.56E-07 M): 102.885% and 100.999% and 103.498%
Cell Viability (%) ([1]; 2.50E-06 M): 85.2061% and 81.3451% and 80.2365%
Cell Viability (%) ([1]; 3.13E-07 M): 100.04% and 97.7301% and 97.0129%
Cell Viability (%) ([1]; 5.00E-06 M): 70.5812% and 67.1387% and 67.0221%
Cell Viability (%) ([1]; 6.25E-07 M): 91.8342% and 92.6769% and 91.2574%
Cell Viability (%) ([1]; 7.81E-08 M): 100.946% and 100.662% and 102.733%
Cell Viability (%) ([4]; 1.25E-06 M): 62.8357% and 58.5114% and 61.2528%
Cell Viability (%) ([4]; 1.56E-07 M): 87.7372% and 87.5805% and 85.7829%
Cell Viability (%) ([4]; 2.50E-06 M): 55.4376% and 54.2347% and 53.6197%
Cell Viability (%) ([4]; 3.13E-07 M): 79.9575% and 76.1954% and 74.7404%
Cell Viability (%) ([4]; 5.00E-06 M): 43.6522% and 45.138% and 46.9951%
Cell Viability (%) ([4]; 6.25E-07 M): 66.0951% and 69.0683% and 66.9419%
Cell Viability (%) ([4]; 7.81E-08 M): 88.6147% and 85.2411% and 92.7295%
